Reference: publication PMC10049354, “Anti-Inflammatory Effects and Photo- and Neuro-Protective Properties of BIO203, a New Amide Conjugate of Norbixin, in Development for the Treatment of Age-Related Macular Degeneration (AMD)” (International Journal of Molecular Sciences, 2023)

How the values were obtained:
Abca4−/− Rdh8−/− mice = assay: Photoreceptor nuclear layer thickness after 6 months of oral complementation in Abca4−/− Rdh8−/− mice; assay type: in vivo, mouse; conditions: HD pellets, 17-month-old mice
Experimental: At the end of the measurement period on Day 7, rats were euthanized by an intraperitoneal injection of pentobarbital. Immediately after euthanasia, both eyeballs were sampled, fixed in Davidson’s solution, and processed for histology. Sections (5 to 7 µm thick) were performed along the vertical meridian and stained with Haematoxylin/Eosin stain. The vertical meridian included the optic nerve. […] The thickness of the outer nuclear layer was measured on each point. […] Histology and photoreceptor counting in mice were performed as previously described.
A custom rodent diet was formulated and irradiated (25 kGy) by Envigo RMS SARL (Gannat, France). Low dose (LD)-BIO203 (50 μg/g) and high dose (HD)-BIO203 (500 μg/g) were incorporated into Teklad Custom Research Diet 2016© pellets. […] The concentration of BIO203 in the customized pellets at the end of each batch was determined by HPLC MS/MS. […] We calculated that in the LD group, male mice weighing 31.63 g after 2 months of complementation consumed 4.16 g of pellets, and in the HD group, male mice weighing 34.11 g after 2 months of complementation consumed 4.11 g of pellets every day, which correspond to a daily dose of 6.04 ± 0.46 mg/kg for the LD-BIO203 pellets and 55.91 ± 2.93 mg/kg for the HD-BIO203 pellets. […]

[1] = BIO203 in plasma and eyes of mice after 6 months of BIO203-containing pellets; assay type: in vivo
Experimental: A custom rodent diet was formulated and irradiated (25 kGy) by Envigo RMS SARL (Gannat, France). Low dose (LD)-BIO203 (50 μg/g) and high dose (HD)-BIO203 (500 μg/g) were incorporated into Teklad Custom Research Diet 2016© pellets. The pellets were stored at −20 °C until use and were administered ad libitum as the standard Teklad Global Rodent Diet 2016© used for the control group. The concentration of BIO203 in the customized pellets at the end of each batch was determined by HPLC MS/MS. The mean concentration was 46 μg/g ± 3.5 μg/g of pellet for the LD and 464 μg/g ± 24.3 μg/g of pellet for the HD. We calculated that in the LD group, male mice weighing 31.63 g after 2 months of complementation consumed 4.16 g of pellets, and in the HD group, male mice weighing 34.11 g after 2 months of complementation consumed 4.11 g of pellets every day, which correspond to a daily dose of 6.04 ± 0.46 mg/kg for the LD-BIO203 pellets and 55.91 ± 2.93 mg/kg for the HD-BIO203 pellets.
To test the preventive/curative action of oral administration of BIO203 against retinal neurodegeneration, a total of 27 Pigmented Abca4^−/− Rdh8^−/− mice carrying the Rpe65-Leu450 mutation and the rd8 mutation in the Crb1 gene from Case Western Reserve University of eleven to twelve months of age were used. Three groups of 9 males received control chow (Teklad Custom Research Diet 2016© pellets) or chow containing LD-BIO203 or HD-BIO203 orally for 6 months. After 6 months of complementation, ERG was measured in both eyes. In the control group, two mice died during the period of complementation and one mouse during ERG measurement. In the HD-BIO203 group, one mouse died before the end of complementation, and 3 mice died just after anesthesia. […] In each group, half of the eyes were removed for A2E and BIO203 measurements, and half of the eyes were used for histological analyses and photoreceptor layer quantification.
Analysis was performed on an LC 1260 System coupled with Mass Spectrometer QQQ-6420 with DAD (Agilent Technologies). […] BIO203 and its isomers were monitored by a mass spectrometer, in positive MRM mode, with the following transitions, respectively, 381.1 -> 144.9 and 478.1 -> 362.9. For quantification of BIO201 and BIO203, calibration curves were prepared under the same conditions as the sample matrix, with various amounts of BIO201 or BIO203 (25 to 10,000 ng/mL in plasma and 5 to 500 ng/mL for eyes).
For determination of norbixin or BIO203 concentrations in plasma, aliquots of plasma samples (25 μL) and internal standard (retinoic acid at 10 µg/mL) were distributed in a 96-well microtiter plate and precipitated with methanol (100 μL). […] Under these conditions, with 5 μL injections, the limit of quantification (LOQ) was 25 ng/mL (0.33 pmol for BIO201 and 0.26 pmol for BIO203). […]

IL-6 [2] = assay: IL-6 mRNA expression induced by A2E (quantitative RT-PCR); assay type: cell-based, pig
Experimental: RPE cells were obtained from pig eyes, as previously described. RPE cells were seeded on a 96-well plate at a density of 1.5 × 10^5 cells/cm^2 in DMEM 2% FCS. BIO201, BIO203, or its pure enantiomers were added in increasing concentrations to the culture medium 48 h before illumination. A2E was added to the medium at a final concentration of 30 μM, and 19 h later, blue-light illumination was performed for 50 min using a 96 blue-led device (Durand, St Clair de la Tour, France) emitting at 470 nm (1440 mcd, 8.6 mA). Just before illumination, the culture medium was replaced by a modified DMEM without any photosensitizer and with 2% FCS. Twenty-four hours after blue-light irradiation, all cell nuclei were stained with Hoechst 33342, and nuclei of dead cells with ethidium homodimer 2, fixed with paraformaldehyde (4% in PBS, 10 min) and 9 pictures per well were captured using a fluorescence microscope (Nikon TiE) equipped with a CoolSNAP HQ2 camera and driven by Metamorph Premier On-Line program. Quantification of live cells was performed using Metamorph Premier Off-Line and a homemade program by subtraction of dead cells from all cells. For cytokines mRNA analysis, RPE cells were seeded in 24-well plates and left untreated or treated with A2E or BIO203 alone or A2E plus BIO203. […]

IL-6 [3] = test system: IL-6; set-up: method as in PMID 34544906; conditions: norbixin at 20 mM (so in the source); cited from earlier work

Compound	thickness of the photoreceptor nuclear layer compared with LD or control pellets (Abca4−/− Rdh8−/− mice)	BIO203 in the eyes ([1]; HD pellets (500 μg/g))	BIO203 in the plasma ([1]; HD pellets (500 μg/g))	BIO203 in the eyes ([1]; LD pellets (50 μg/g))	BIO203 in the plasma ([1]; LD pellets (50 μg/g))	change of IL-6 mRNA expression induced by A2E (IL-6 [2]; BIO203 20 mM (so in the source), A2E 20 μM, porcine RPE cells, p < 0.001) [%]	effect on IL-6 expression on its own (without A2E) (IL-6 [2]; BIO203 alone, not statistically significant)	effect on IL-6 mRNA expression (IL-6 [3])
COC1CCCN(C(=O)/C=C/C(C)=C/C=C/C(C)=C/C=C/C=C(C)/C=C/C=C(C)\C=C\C(=O)O)C1 (centres unmarked) [BIO203]	No difference	not detected	detected	not detected	absence of BIO203 plasmatic exposure	−104.8	slightly inhibited	
CC(=C/C=C/C(C)=C/C=C/C=C(C)/C=C/C=C(C)/C=C/C(=O)O)/C=C/C(=O)O [norbixin, 9′-cis-norbixin]								significantly reduced
